Experimental data reported in US11292782B2, “Diarylhydantoin compounds and methods of use thereof” (Nuvation Bio Inc., priority 2018, dated 2022).

Columns and labels:
Assay type in all cases: cell-based
Human AR [1] = target: T1, Human AR (Homo sapiens (Human), UniProt P10275); experiment: AR agonist assay (GRE-LUC luciferase, transfected HEK-293 cells, test article alone); details: HEK-293 transfected with human AR, read-out: AR Agonist IC50
Description: (§1) Human AR cDNA cloned into pCMV vector, GRE-LUC, and CMV-renilla-LUC were used to transfect cells. HEK-293 cells (ATCC) were plated at 120,000 cells per well of a 24 well plate in DME+5% csFBS (Fisher Scientific, Waltham, Mass.). The cells were transfected using Lipofectamine (Life Technologies, Carlsbad, Calif.) with 0.25 μg GRE-LUC, 0.010 μg CMV-LUC (renilla luciferase) and 25 ng of the AR. […] Luciferase assay was performed 48 hrs after transfection. Firefly luciferase assay values were normalized to renilla luciferase values and were graphed using graphpad prism software (La Jolla, Calif.). […] The IC50 or EC50 values were determined using non-linear regression and […] logistics fitting.

Human AR [2] = target: T1, Human AR; experiment: AR antagonist assay (GRE-LUC luciferase, transfected HEK-293 cells, with 0.1 nM R1881); details: with 0.1 nM R1881
Description: as §1

PSA gene expression = experiment: AR activity assay: PSA gene expression (realtime PCR); details: 1 and 10 μM
Description: (§2) LNCaP (ATCC) or LNCaP-EnzR (MR49F was received from Dr. Martin Gleave, University of British Columbia) cells were plated in 96 well plates at 15,000-20,000 cells/well in RPMI+1% csFBS without phenol red. Cells were treated 2 days after plating and harvested 18 hours after treatment (for TMPRSS2) or 24 hours after treatment (for PSA and FKBP5). RNA was isolated (cells to ct kit, Life Technologies), cDNA synthesized (cells to ct kit), and expression of TMPRSS2, PSA or FKBP5 and expression of GAPDH were measured using realtime PCR primers and probes (TaqMan probes, Life Technologies) by realtime PCR (ABI 7900, Life Technologies). Relative expression was calculated using ddct method.

FKBP5 gene expression = experiment: AR activity assay: FKBP5 gene expression (realtime PCR); details: 1 and 10 μM
Description: as §2

GFP-AR = GFP-AR (Homo sapiens (Human), UniProt P10275); details: COS cells, GFP-AR, 30 min pre-treatment, then R1881 for four hours
GFP-AR, sequence (P10275 whole entry, looked up): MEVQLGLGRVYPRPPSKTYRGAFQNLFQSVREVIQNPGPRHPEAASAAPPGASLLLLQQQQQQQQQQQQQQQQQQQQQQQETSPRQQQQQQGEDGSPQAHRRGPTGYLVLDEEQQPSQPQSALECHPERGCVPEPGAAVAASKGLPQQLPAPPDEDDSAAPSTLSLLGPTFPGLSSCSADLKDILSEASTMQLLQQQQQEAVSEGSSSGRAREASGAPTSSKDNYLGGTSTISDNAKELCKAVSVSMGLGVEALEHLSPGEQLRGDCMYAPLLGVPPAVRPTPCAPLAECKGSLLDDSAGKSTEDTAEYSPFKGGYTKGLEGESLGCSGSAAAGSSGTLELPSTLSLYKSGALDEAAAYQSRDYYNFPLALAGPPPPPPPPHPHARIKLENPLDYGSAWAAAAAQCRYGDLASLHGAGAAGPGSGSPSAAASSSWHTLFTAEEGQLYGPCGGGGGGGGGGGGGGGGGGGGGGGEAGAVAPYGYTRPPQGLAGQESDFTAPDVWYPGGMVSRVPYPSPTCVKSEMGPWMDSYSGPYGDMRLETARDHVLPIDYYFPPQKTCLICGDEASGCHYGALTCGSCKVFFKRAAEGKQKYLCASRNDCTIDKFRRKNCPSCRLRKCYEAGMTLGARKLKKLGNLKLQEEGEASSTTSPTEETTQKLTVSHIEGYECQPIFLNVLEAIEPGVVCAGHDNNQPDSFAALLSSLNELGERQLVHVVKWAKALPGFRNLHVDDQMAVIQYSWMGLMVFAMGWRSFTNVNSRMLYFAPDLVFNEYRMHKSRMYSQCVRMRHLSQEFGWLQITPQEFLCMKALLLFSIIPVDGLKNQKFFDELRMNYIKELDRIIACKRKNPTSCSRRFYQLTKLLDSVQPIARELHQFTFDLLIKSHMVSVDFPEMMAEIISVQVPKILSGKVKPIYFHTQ
Description: COS cells plated in chamber slides in DME+5% csFBS without phenol red were transfected with […] GFP-AR using lipofectamine reagent.

GR = GR (Homo sapiens (Human), UniProt P04150); experiment: GR antagonist assay (GRE-LUC luciferase, transfected COS-7 cells, with 0.1 nM dexamethasone); details: 10 μM, in the presence of 0.1 nM dexamethasone
GR, sequence (P04150 whole entry): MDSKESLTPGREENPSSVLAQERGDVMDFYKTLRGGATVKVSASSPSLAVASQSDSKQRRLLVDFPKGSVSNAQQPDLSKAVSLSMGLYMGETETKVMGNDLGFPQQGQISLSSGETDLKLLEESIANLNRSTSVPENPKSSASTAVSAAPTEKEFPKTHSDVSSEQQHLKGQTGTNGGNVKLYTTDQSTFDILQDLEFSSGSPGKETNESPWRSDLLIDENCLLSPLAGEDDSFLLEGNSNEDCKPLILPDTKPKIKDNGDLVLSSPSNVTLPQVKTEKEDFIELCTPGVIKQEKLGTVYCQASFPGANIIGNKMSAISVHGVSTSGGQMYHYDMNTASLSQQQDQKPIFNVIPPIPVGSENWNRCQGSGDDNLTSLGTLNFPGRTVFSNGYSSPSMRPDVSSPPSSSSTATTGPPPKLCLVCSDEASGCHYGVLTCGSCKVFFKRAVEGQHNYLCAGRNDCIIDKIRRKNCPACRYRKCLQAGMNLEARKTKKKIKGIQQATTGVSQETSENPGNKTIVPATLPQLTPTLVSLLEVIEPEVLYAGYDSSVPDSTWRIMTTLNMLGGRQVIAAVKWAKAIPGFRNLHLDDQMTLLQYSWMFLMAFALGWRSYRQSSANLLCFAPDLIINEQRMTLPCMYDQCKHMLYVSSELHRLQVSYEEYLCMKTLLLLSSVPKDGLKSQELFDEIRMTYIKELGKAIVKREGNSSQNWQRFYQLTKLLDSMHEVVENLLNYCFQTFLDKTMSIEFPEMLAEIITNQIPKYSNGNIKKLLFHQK
Description: COS-7 cells (ATCC, Manassas, Va.) were plated in 24 well plates in DME+5% csFBS without phenol red at 70,000 cells/well. Once the cells attached to the plates (typically after overnight incubation after plating), they were transfected in OPTIMEM medium (Life Technologies) using lipofectamine reagent (Life Technologies) with 0.25 μg GRE-LUC, 25 ng pCR3.1 GR, and 10 ng CMV-renilla LUC per well. Twenty-four hours after transfection, the cells were fed with DME+5% csFBS without phenol red (Fisher Scientific, Waltham, Mass.) and treated with the test compounds (1 pM to 10 μM dose range) in the presence of 0.1 nM dexamethasone (Sigma, St. Louis, Mo.). Sixteen to twenty-four hours after treatment, a luciferase assay was performed using the Dual Luciferase assay kit (Promega, Madison, Wis.). Firefly luciferase values were normalized to Renilla luciferase numbers.

LNCaP cells = experiment: Cell proliferation assay, LNCaP (CellTiter-Glo); details: 6 days
Description: (§3) LNCaP-abl (3,000 cells/well, received from Dr. Myles Brown, Dana Farber Cancer Institute), 22RV1 (1,000 cells/well), LNCaP (5,000 cells/well), or COS (3,000 cells/well) cells were plated in 96 well plates in 50 μl RPMI+10% FBS (Fisher Scientific, Waltham, Mass.). LNCaP, COS, and 22RV1 cells were obtained from ATCC. Cells were treated in RPMI+10% FBS with test articles, ranging from 1 nM to 10 μM. Three days later, viable cells (LNCaP-abl, 22RV1, and COS) were measured by CellTiter-Glo assay (Promega, Madison, Wis.). For LNCaP cells, medium containing test article was changed after 3 days of treatment, and after an additional 3 days of culture, viable cells were measured by CellTiter-Glo assay.
(§4) The LNCaP cell line is androgen responsive with AR and PSA expression. It contains a T877A mutation in the AR. The 22RV1 cell line is positive for AR and PSA with additional AR splice variants and is insensitive to androgen for cell proliferation. The LNCaP-abl cell line expresses both AR and GR but is insensitive to androgen for cell proliferation. COS-7 is used as an AR negative cell line in this experiment.

LNCaP-abl cells = experiment: Cell proliferation assay, LNCaP-abl (CellTiter-Glo); details: 72 h, 3 days
Description: as §3, §4

22RV1 cells = experiment: Cell proliferation assay, 22RV1 (CellTiter-Glo); details: 3 days
Description: as §3, §4

COS-7 cells = experiment: Cell proliferation assay, COS-7 (CellTiter-Glo); details: 3 days
Description: as §3, §4

T1 sequence (P10275 whole entry): as the sequence (P10275 whole entry, looked up) above

Q: For CC1(C)C(=O)N(c2ccc(C#N)c(C(F)(F)F)c2)C(=S)N1c1ccc(CNC(=O)c2ccccn2)c(F)c1 [Compound 8], which EC50 (Human AR [1]) is on record?
A: Its EC50 is > 10 µM.

Q: And the IC50 (Human AR [2])?
A: Its IC50 is 47.2 nM.

Q: What about the PSA gene expression (PSA gene expression) of the same compound?
A: The PSA gene expression was “significant inhibition”.

Q: What about the FKBP5 gene expression (FKBP5 gene expression) of the same compound?
A: Its FKBP5 gene expression is “significant inhibition”.

Q: What about the “AR localization (cytoplasmic or nuclear)” value (GFP-AR) of the same compound?
A: The value was “nuclear”.

Q: What about the “GR antagonist assay, % of vehicle” value (GR) of the same compound?
A: Its value is 52%.

Q: And the “cell proliferation, % of vehicle at 3 μM” value (LNCaP cells; 3 μM)?
A: The value was 63%.

Q: What about the “cell proliferation, % of vehicle at 10 μM” value (LNCaP cells; 10 μM) of the same compound?
A: Its value is 19%.

Q: And the activity at 3 µM (LNCaP-abl cells; 3 μM, read-out: cell proliferation, % of vehicle at 3 μM)?
A: The activity at 3 µM was 83%.

Q: And the activity at 10 µM (LNCaP-abl cells; 10 μM, read-out: cell proliferation, % of vehicle at 10 μM)?
A: Its activity at 10 µM is 62%.

Q: What about the “cell proliferation, % of vehicle at 3 μM” value (22RV1 cells; 22RV1, 3 μM) of the same compound?
A: Its value is 87%.

Q: And the “cell proliferation, % of vehicle at 10 μM” value (22RV1 cells; 22RV1, 10 μM)?
A: The value was 90%.

Q: What about the “cell proliferation, % of vehicle at 3 μM” value (COS-7 cells; COS-7, 3 μM) of the same compound?
A: Its value is 99%.

Q: And the “cell proliferation, % of vehicle at 10 μM” value (COS-7 cells; COS-7, 10 μM)?
A: The value was 91%.
